Measured values published in patent publication EP1300145A1, “THERAPEUTIC OR […] FOR MOOD DISORDERS OR ANXIETY DISORDERS” (TORAY INDUSTRIES, INC., priority 2000, dated 2002).

What was measured:
[1] = system: male SD rats; assay: elevated plus-maze test in rats (antianxiety effect); format: in vivo; settings: subcutaneous; for Time spent on open arms: 30 minutes after administration, 3 minute test, Saline,s.c. 19.1 ± 6.3; for antianxiety effect: overall statement in words
Source text: (§1) The isoquinoline derivative represented by formula (I) has a marked effect in the forced swim test, which is the animal model for mood disorder, and in the elevated plus-maze test, which is the animal model for anxiety disorder. Thus, the isoquinoline derivative can be used as a drug for curing or preventing mood disorder or anxiety disorder of mammal and, in particular, human beings. It may also be used in manufacturing of a medicament for curing or preventing mood disorder or anxiety disorder. The evaluation using the above-described animal models can be conducted by a method described in published references [Nature vol. 266, 730 (1977) or Jpn. J. Psychopharmacol vol. 15, 125 (1995)], but the method is not limited to this.
The experiment was conducted on male SD rats. In the elevated plus-maze test, the elevated plus-maze (manufactured by NeuroScience, Inc.) consisting of closed arms and open arms was used. In the experiment, a rat was placed on an open arm 30 minutes after the drug administration (subcutaneous administration), and the number of entries to the open and closed arms and the time spent in the open arms were measured. The test was conducted for 3 minutes. The rat was assumed to have made entries when all four legs have entered the arm. The ratio of the time spent in the open arms and the ratio of the entries to the open arms were calculated according to the following equations: Ratio of the time spent in the open arms (%) = {(time spent in the open arms)/(total time)} × 100 [formula] Ratio of the entries to the open arms (%) = {(number of entries to the open arms)/(total number of entries)} × 100 [formula]
The vertical axis on the left indicates the ratio of the time spent in the open arms (%) and the ratio of the entries to the open arms (%). The vertical axis on the right indicates the total number of entries. The horizontal axis indicates a control group and treatment groups. Open columns indicate the ratio of the time spent in the open arms (%) and hatched columns indicate the ratio of the entries to the open arms (%). Closed circles indicate the total number of entries. All data are indicated by average ±standard error. In a significance test, the difference was assumed to be significant at a significance level of 5% or less by Dunnett's multiple comparison. In the test, the drug is assumed to have an antianxiety effect when there are an increase in time spent on open arms and an increase in ratio of entries to open arms under administration.
The antianxiety effect of Compounds 3, 5, and 6 was assessed as in Example 1. […]

[2] = system: male ICR mice; assay: forced swim test in mice (antidepressant effect); format: in vivo; settings: for Immobility time: Saline,s.c. 136.3 ± 11.4; for antidepressant effect: subcutaneous, overall statement in words
Source text: as §1
In the experiment, male ICR mice were used. In the forced swim test, the tank for forced swim used was a transparent cylindrical tank made of plastic (inner diameter: 10 cm, height: 30 cm), and water at 25°C was contained up to 14 cm in height. A mouse was placed in water, and its swimming time during 2 to 6 minutes after placement was measured. The drug was subcutaneously administered 30 minutes before testing. The vertical axis indicates the swimming time (sec) during the measurement time (4 min). The open column indicates a saline-treated group and the hatched columns indicate Compound 1 treatment groups. All data are indicated by average ±standard error. In a significance test, the difference was assumed to be significant at a significance level of 5% or less by Dunnett's multiple comparison. In the test, the drug is assumed to have an antidepressant effect when there is an increase in swimming time under administration.
The antidepressant effect of Compound 3, 5, and 6 was assessed as in Example 3. […]

[3] = 30 mg/kg, subcutaneous 30 minutes before testing
[4] = Fig. 1, compared with the control group (saline-treated group), Dunnett's multiple comparison

For `Oc1cccc([C@]23CCN(CCc4ccccc4)C[C@@H]2Cc2cc4ccccc4nc2C3)c1` (relative stereo) [Compound 6, 2-phenethyl-4aα-(3-hydroxyphenyl)-1,2,3,4,4a,5,12,12aβ-octahydro-quinolino [2,3-g]isoquinoline], the “Time spent on open arms” value ([1]; 30 mg/kg) was 37.9 ± 4.4 s, the antianxiety effect [1] was “significant antianxiety effects” and the “Immobility time” value [2, 3] was 58.7 ± 9.1 s. The antidepressant effect [2] was “significant antidepressant effect”.

`CN1CC[C@]2(c3cccc(O)c3)Cc3nc4ccccc4cc3C[C@@H]2C1` [Compound 1, (4aS,12aS)-2-methyl-4a-(3-hydroxyphenyl)-1,2,3,4,4a,5,12,12a-octahydroquinolino[2,3-g]isoquinoline] was tested, and the “ratio of the entries to open arms” value [1, 4] was “dose-dependent significant increase”, the “time spent in open arms” value [1, 4] was “dose-dependent significant increase” and the antianxiety effect [1] was “confirmed to have an antianxiety effect”. The swimming time ([2]; subcutaneous 30 minutes before testing, 2 to 6 minutes after placement, Fig. 2, compared with the control group (saline-treated group)) was “dose-dependent significant increase” and the antidepressant effect [2] was “confirmed to have an antidepressant effect”.

In the case of `CN1CC[C@]2(c3cccc(O)c3)Cc3nc4ccccc4c(N)c3C[C@H]2C1` (relative stereo) [Compound 5, 2-methyl-4aα-(3-hydroxyphenyl)-11-amino-1,2,3,4,4a,5,12,12aβ-octahydro-quinolino[2,3-g]isoquinoline], the “Time spent on open arms” value ([1]; 10 mg/kg) is reported as 25.4 ± 10.2 s, the antianxiety effect [1] is reported as “significant antianxiety effects” and the “Immobility time” value ([2]; 10 mg/kg, subcutaneous 30 minutes before testing) is reported as 94.3 ± 13 s. The antidepressant effect [2] was “significant antidepressant effect”.

`Cc1c2c(nc3ccccc13)C[C@@]1(c3cccc(O)c3)CCN(C)C[C@@H]1C2` (relative stereo) [Compound 3, 2-methyl-4aα-(3-hydroxyphenyl)-11-methyl-1,2,3,4,4a,5,12,12aβ-octahydro-quinolino[2,3-g]isoquinoline] was tested, and the “Time spent on open arms” value ([1]; 30 mg/kg) was 36.6 ± 13.2 s, the antianxiety effect [1] was “significant antianxiety effects” and the “Immobility time” value [2, 3] was 75.4 ± 11.6 s. For the same molecule, the antidepressant effect [2] was “significant antidepressant effect”.
